Assay results published in ChEMBL document CHEMBL5523667, “Blood-stage antimalarial activity, favourable metabolic stability and in vivo toxicity of novel piperazine linked 7-chloroquinoline-triazole conjugates” (Eur J Med Chem, 2024).
Activity calls are given as the source filed them. The calls are words filed in the database; no cut-off is given here.

Columns and labels:
Hemozoin = test: Inhibition of beta-hematin formation in Plasmodium falciparum by UV-visible SpectraMax P340 plate reader analysis
Plasmodium falciparum [1] = test: Resistance index, ratio of IC50 for antimalarial activity against chloroquine-resistant Plasmodium falciparum K1 to IC50 for antimalarial activity against chloroquine-sensitive Plasmodium falciparum NF54; assay type: functional
Plasmodium falciparum [2] = test: Antimalarial activity against chloroquine-sensitive Plasmodium falciparum NF54 assessed as inhibition of parasite growth by lactate dehydrogenase assay; assay type: functional, organism-based
Plasmodium falciparum [3] = test: Antimalarial activity against chloroquine-resistant Plasmodium falciparum K1 assessed as inhibition of parasite growth by lactate dehydrogenase assay; assay type: functional, organism-based
[4] = Cytotoxicity against CHO cells assessed as reduction in cell viability by MTT assay; assay type: toxicity, cell-based; settings: Chinese hamster (Cricetulus griseus)
[5] = Selectivity index, ratio of IC50 for cytotoxicity against CHO cells to IC50 for antimalarial activity against chloroquine-sensitive Plasmodium falciparum NF54; assay type: toxicity, cell-based; settings: hamster, CHO cells versus Plasmodium falciparum NF54; read-out: Ratio IC50
Plasmodium falciparum [6] = test: Antimalarial activity against synchronized ring stage Plasmodium falciparum assessed as accumulation of free heme at 25 to 100 nM incubated for 20 hrs by absorbance based analysis; assay type: functional, organism-based; settings: dose 25-100 nM
Plasmodium falciparum [7] = test: Antimalarial activity against synchronized ring stage Plasmodium falciparum assessed as reduction in hemozoin level at 25 to 100 nM incubated for 20 hrs by absorbance based analysis; assay type: functional, organism-based; settings: dose 25-100 nM
Plasmodium falciparum [8] = test: Antimalarial activity against chloroquine-sensitive Plasmodium falciparum 3D7 assessed as growth inhibition at 1 to 2 uM; assay type: functional, organism-based; settings: dose 1-2 µM
Plasmodium falciparum [9] = test: Antimalarial activity against chloroquine-sensitive Plasmodium falciparum 3D7 assessed as growth inhibition at 1 uM relative to control; assay type: functional; parameters: scale not given: the % may be the effect or the level left
Plasmodium falciparum [10] = test: Antimalarial activity against chloroquine-sensitive Plasmodium falciparum 3D7 assessed as growth inhibition at 1 uM; assay type: functional, organism-based
Falcipain 2 = target: T1, Falcipain 2 (Plasmodium falciparum, UniProt Q9N6S8); test: Binding affinity to N-terminal 6His-tagged recombinant Plasmodium falciparum FP2 expressed in Escherichia coli M15 assessed as dissociation constant incubated for 15 mins in presence of lysine reactive dye by microscale thermophoretic analysis
T1 sequence (Q9N6S8 whole entry): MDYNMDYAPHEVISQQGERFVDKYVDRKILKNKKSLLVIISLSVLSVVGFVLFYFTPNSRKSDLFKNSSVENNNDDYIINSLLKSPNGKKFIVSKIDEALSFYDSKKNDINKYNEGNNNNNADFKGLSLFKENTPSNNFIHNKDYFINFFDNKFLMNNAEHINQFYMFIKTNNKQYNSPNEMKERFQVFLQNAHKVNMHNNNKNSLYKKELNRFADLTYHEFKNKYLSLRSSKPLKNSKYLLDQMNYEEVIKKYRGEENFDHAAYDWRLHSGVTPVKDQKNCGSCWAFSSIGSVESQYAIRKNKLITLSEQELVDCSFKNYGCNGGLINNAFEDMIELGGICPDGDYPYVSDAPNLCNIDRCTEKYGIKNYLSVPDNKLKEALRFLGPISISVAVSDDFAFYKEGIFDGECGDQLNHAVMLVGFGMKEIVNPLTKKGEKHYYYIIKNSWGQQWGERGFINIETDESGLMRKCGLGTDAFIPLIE

Plasmodium falciparum [11] = test: Antimalarial activity against schizont stage Plasmodium falciparum infected in erythrocytes assessed as reduction in proteolytic activity at 5 uM pre-incubated for 1 hr followed by Z-Phe-Arg-AMC addition and measured after 5 to 10 mins by confocal microscopic analysis relative to control; assay type: functional, Erythrocyte; parameters: scale not given: the % may be the effect or the level left; settings: time 65-70 min

IC50 (Hemozoin)	SMILES	IC50 (Plasmodium falciparum [2])	also measured
14 µM	COc1ccccc1NC(=O)Cn1cc(CN2CCN(c3ccnc4cc(Cl)ccc34)CC2)nn1	3.26 µM	
21.3 µM	O=C(Cn1cc(CN2CCN(c3ccnc4cc(Cl)ccc34)CC2)nn1)Nc1ccccc1F	3.16 µM	
21.4 µM	O=C(Cn1cc(CN2CCN(c3ccnc4cc(Cl)ccc34)CC2)nn1)Nc1ccccc1[N+](=O)[O-]	2.9 µM	
23.3 µM	CCN(CC)CCCC(C)Nc1ccnc2cc(Cl)ccc12 (configuration not stated) [CHLOROQUINE]		Activity (Plasmodium falciparum [6]): Active; Activity (Plasmodium falciparum [7]): Active
	Clc1ccc2c(N3CCN(Cc4cn(-c5cccc6ccccc56)nn4)CC3)ccnc2c1		Activity (Plasmodium falciparum [8]): inactive
	O=[N+]([O-])c1cccc(-n2cc(CN3CCN(c4ccnc5cc(Cl)ccc45)CC3)nn2)c1		Activity (Plasmodium falciparum [9]): >50%
	Clc1ccc2c(N3CCN(Cc4cn(-c5ccnc6cc(Cl)ccc56)nn4)CC3)ccnc2c1		Activity (Plasmodium falciparum [8]): Active
	COC(=O)[C@H](C)NC(=O)Cn1cc(CN2CCN(c3ccnc4cc(Cl)ccc34)CC2)nn1		Activity (Plasmodium falciparum [10]): Active
	CCOC(=O)CNC(=O)Cn1cc(CN2CCN(c3ccnc4cc(Cl)ccc34)CC2)nn1		Activity (Plasmodium falciparum [8]): Active
	COC(=O)[C@H](Cc1ccccc1)NC(=O)Cn1cc(CN2CCN(c3ccnc4cc(Cl)ccc34)CC2)nn1		Activity (Plasmodium falciparum [8]): Active
	COC(=O)[C@H](C)NC(=O)Cn1cc(COc2cccc3ccccc23)nn1		Activity (Plasmodium falciparum [8]): Active
	Cc1ccccc1-n1cc(CN2CCN(c3ccnc4cc(Cl)ccc34)CC2)nn1		Activity (Plasmodium falciparum [9]): >50%
17.2 µM	Cc1cccc(NC(=O)Cn2cc(CN3CCN(c4ccnc5cc(Cl)ccc45)CC3)nn2)c1	3.5 µM	
19.8 µM	O=C(Cn1cc(CN2CCN(c3ccnc4cc(Cl)ccc34)CC2)nn1)Nc1ccccc1	4.98 µM	
10.9 µM	CCN(CC)Cc1cc(Nc2ccnc3cc(Cl)ccc23)ccc1O [AMODIAQUINE]		
	Clc1ccc2c(N3CCN(Cc4cn(-c5ccnc6ccccc56)nn4)CC3)ccnc2c1		Activity (Plasmodium falciparum [8]): Active
17.4 µM	COc1cccc(NC(=O)Cn2cc(CN3CCN(c4ccnc5cc(Cl)ccc45)CC3)nn2)c1	3.56 µM	
	Clc1ccc2c(N3CCN(Cc4cn(-c5ccccc5Cl)nn4)CC3)ccnc2c1		Activity (Plasmodium falciparum [9]): >50%
12.7 µM	COC(=O)c1ccc(NC(=O)Cn2cc(CN3CCN(c4ccnc5cc(Cl)ccc45)CC3)nn2)cc1	4.14 µM	
28.9 µM	O=C(Cn1cc(CN2CCN(c3ccnc4cc(Cl)ccc34)CC2)nn1)Nc1ccc([N+](=O)[O-])cc1	3.23 µM	
	CC(C)C[C@H](NC(=O)[C@H]1O[C@@H]1C(=O)O)C(=O)NCCCCN=C(N)N [E-64]		Kd (Falcipain 2): 1.18 µM; Activity (Plasmodium falciparum [11]): 100%
17.4 µM	Cc1ccccc1NC(=O)Cn1cc(CN2CCN(c3ccnc4cc(Cl)ccc34)CC2)nn1	4.17 µM	
	O=C(OCc1cn(-c2ccnc3cc(Cl)ccc23)nn1)c1cccc([N+](=O)[O-])c1		Activity (Plasmodium falciparum [8]): inactive
19.4 µM	O=C(Cn1cc(CN2CCN(c3ccnc4cc(Cl)ccc34)CC2)nn1)Nc1ccc(Br)cc1	6.45 µM	
	C[C@@H](NC(=O)Cn1cc(CN2CCN(c3ccnc4cc(Cl)ccc34)CC2)nn1)C(=O)O		Activity (Plasmodium falciparum [8]): inactive
8.4 µM	O=C(Cn1cc(CN2CCN(c3ccnc4cc(Cl)ccc34)CC2)nn1)Nc1ccc(Cl)cc1	4.68 µM	
19.7 µM	COc1ccc(NC(=O)Cn2cc(CN3CCN(c4ccnc5cc(Cl)ccc45)CC3)nn2)cc1	6.73 µM	

SMILES	IC50 (Hemozoin)	IC50 (Plasmodium falciparum [2])	also measured
Cc1ccc(NC(=O)Cn2cc(CN3CCN(c4ccnc5cc(Cl)ccc45)CC3)nn2)cc1	18.6 µM	1.8 µM	Ratio IC50 (Plasmodium falciparum [1]): 2.4; IC50 (Plasmodium falciparum [3]): 4.37 µM; IC50 [4]: 33.8 µM; selectivity ratio [5]: 18.8
O=C(Cn1cc(CN2CCN(c3ccnc4cc(Cl)ccc34)CC2)nn1)Nc1ccc(F)cc1	20.6 µM	1.74 µM	Ratio IC50 (Plasmodium falciparum [1]): 1.77; IC50 (Plasmodium falciparum [3]): 3.08 µM; IC50 [4]: 326 µM; selectivity ratio [5]: 188
O=C(Cn1cc(CN2CCN(c3ccnc4cc(Cl)ccc34)CC2)nn1)Nc1cccc(F)c1	10.6 µM	1.69 µM	Ratio IC50 (Plasmodium falciparum [1]): 1.7; IC50 (Plasmodium falciparum [3]): 2.92 µM; IC50 [4]: 146 µM; selectivity ratio [5]: 86.5
O=C(Cn1cc(CN2CCN(c3ccnc4cc(Cl)ccc34)CC2)nn1)Nc1cccc(Cl)c1	15.6 µM	1.83 µM	Ratio IC50 (Plasmodium falciparum [1]): 4.74; IC50 (Plasmodium falciparum [3]): 8.68 µM; IC50 [4]: > 503 µM; selectivity ratio [5]: > 275
O=C(Cn1cc(CN2CCN(c3ccnc4cc(Cl)ccc34)CC2)nn1)Nc1ccccc1Cl	19.2 µM	1.79 µM	Ratio IC50 (Plasmodium falciparum [1]): 3.29; IC50 (Plasmodium falciparum [3]): 5.9 µM; IC50 [4]: 126 µM; selectivity ratio [5]: 70.3
